Where no end group is shown, it is not given here.
Columns and labels:
[1] = test system: red blood cells from healthy volunteers; assay: Hemolytic activity on red blood cells; assay type: cell-based, human; settings: for hemolytic concentration: peptide concentration at which red blood cells were lysed
Method: (§1) Minimum inhibitory concentrations (MIC) and minimum bactericidal concentrations (MBC) were determined for E. coli and S. aureus as described previously. Hemolytic activity was also determined by using red blood cells from healthy volunteers, as described previously.

E. coli and S. aureus = assay: Antimicrobial activity, covering both strains; assay type: cell-based; settings: for antimicrobial activity (in words): at the concentrations tested
Method: (§2) The antimicrobial activity for gp41w and its derivatives was determined against Gram-negative E. coli and Gram-positive S. aureus strains (Table 1).
as §1

[2] = Acrylamide quenching of Trp fluorescence (Stern-Volmer constant); assay type: physicochemical; parameters: unit not given here; settings: acrylamide titration (aliquots of 4 M acrylamide), 25 °C, three separate trials
Method: Acrylamide quenching experiments were performed for the four peptides to examine the accessibility of the Trp fluorophores in the various membrane environments. If a Trp side chain inserts into the hydrophobic core of the bilayer, it becomes less accessible to the effects of the soluble acrylamide quencher. The quenching of Trp fluorescence is directly related to the concentration of quencher, so a titration with the neutral acrylamide allows for the calculation of the Stern–Volmer constant (Ksv), which quantitatively measures the accessibility of the Trp residues in various lipid environments.
Intrinsic tryptophan fluorescence of the peptides was measured on a Cary Eclipse Fluorimeter (Agilent Technologies, Victoria, Australia) equipped with a temperature control unit set at 25 °C. Emission spectra were recorded between 300 and 400 nm with an excitation wavelength of 295 nm. Excitation and emission slits were kept at 5 and 10 nm, respectively, for all the peptides except for gp41w-FKA, which has a single Trp residue, and for which both slit widths were maintained at 10 nm. The concentration of SDS and DPC in the fluorescence samples was 25 mM, while the lipid concentration in the LUV samples was 30 μM. Acrylamide titrations were performed to determine Ksv by adding five aliquots of a 4 M acrylamide solution to the sample and recording an emission spectra using the parameters described above. Ksv was calculated by using the formula F0/F = […], Where F0 is the initial fluorescence and F is the fluorescence intensity after the addition of soluble quencher (Q).

E. coli = settings: for MBC E. coli: minimum bactericidal concentration; for MIC E. coli: minimum inhibitory concentration
Method: as §2, §1

S. aureus = settings: for MBC S. aureus: minimum bactericidal concentration; for MIC S. aureus: minimum inhibitory concentration
Method: as §2, §1

[3] = Calcein leakage from LUVs; settings: 37 °C, triplicate; for calcein leakage from zwitterionic ePC:ePE LUVs: highest peptide:lipid ratio tested; for calcein leakage from zwitterionic ePC:ePE LUVs (in words): melittin as positive control
Method: All four peptides were tested for their ability to induce the release of the self-quenching fluorescent dye, calcein, from calcein-encapsulated LUVs.
Melittin (black), a known lytic peptide from honey-bee venom was used as a positive control. All experiments were carried out in triplicate at 37 °C.
Calcein leakage was performed according to established protocols. Melittin, the principal component of bee venom and a known lytic peptide, was used as a positive control. Calcein leakage was measured for LUVs made from lipid mixtures of ePC:ePG, ePE:ePG or ePC:ePE.

[4] = Tryptophan emission fluorescence in aqueous buffer; assay type: physicochemical; settings: 25 °C, excitation 295 nm, a blue-shifted maximum is read as oligomerization in solution
Method: Tryptophan emission fluorescence of all the gp41w derivatives was performed to examine the microenvironment surrounding the Trp side chains. It is evident that the behaviour of the gp41w peptide is very different from the other peptides. The wavelength of the maximum emission for gp41w occurs at 342 nm, while the other three peptides have maximum emission wavelengths at ~356 nm. The value of 356 nm is normal for an exposed Trp side chain in aqueous solution. […] A shift towards lower wavelengths is usually interpreted as the Trp residue residing in a more hydrophobic environment, which may be due to the gp41w peptides oligomerizing in solution.
Intrinsic tryptophan fluorescence of the peptides was measured on a Cary Eclipse Fluorimeter (Agilent Technologies, Victoria, Australia) equipped with a temperature control unit set at 25 °C. Emission spectra were recorded between 300 and 400 nm with an excitation wavelength of 295 nm. […] The concentration of SDS and DPC in the fluorescence samples was 25 mM, while the lipid concentration in the LUV samples was 30 μM. […] Ksv was calculated by using the formula F0/F = […], Where F0 is the initial fluorescence and F is the fluorescence intensity after the addition of soluble quencher (Q).

[5] = 4:4:1 CDCl3:methanol-d3:H2O, 1–2 mg in 500 μL; aggregates persisted at higher temperatures
Method: Consequently, we chose to use a cosolvent mixture consisting of four parts deuterated chloroform, four parts deuterated methanol and one part water [19–20].
NMR samples were prepared by dissolving 1–2 mg of lyophilized peptide powder in 500 μL of the miscible cosolvent solution, and then the samples were flame sealed in an NMR tube to avoid evaporation of the organic solvents. Two-dimensional NOESY, TOCSY and COSY spectra were collected at 298 K on a Bruker Avance 700 MHz spectrometer. Mixing times in the NOESY and TOCSY experiments were 100 ms and 120 ms, respectively. Spectra were acquired with 4096 × 600 data points in the F1 and F2 dimensions at a spectral width of 8992.806 Hz. Water suppression was achieved by using excitation sculpting [44].

[6] = earlier attempts at an NMR structure; cited from earlier work
Text: The lack of antimicrobial activity may be related to the fact that the gp41w peptide appears to oligomerize in solution. […] In terms of the antimicrobial activity, gp41w oligomers may be too large to pass through the peptidoglycan layer surrounding Gram-positive bacteria. Additionally, they would have to disassociate into monomers before the ...

[7] = most potent peptide of Lee et al.; cited from earlier work
Text: Other de novo strategies for generating AMPs have been reported in the literature. For instance, Lee et al. recently published a study wherein they synthesized short peptides (5-11 residues) composed of only three amino acids: Lys, Leu and Trp. Their results support the notion that the antimicrobial activity of a peptide is related to peptide amphipathicity and helicity as well as to the location of the Trp residues.

| Substance | hemolytic concentration [1] [µg/mL] | antimicrobial activity (in words) (E. coli and S. aureus; E. coli and S. aureus) | Ksv (Stern-Volmer constant) in buffer [2] | MBC E. coli (E. coli) [µg/mL] | MIC E. coli (E. coli) [µg/mL] | MBC S. aureus (S. aureus) [µg/mL] | MIC S. aureus (S. aureus) [µg/mL] | calcein leakage from zwitterionic ePC:ePE LUVs [3] | concentration below which hemolysis was not observed [1] [µg/mL] | hemolysis (in words) ([1]; peptide added to red blood cells) | wavelength of the maximum Trp emission in aqueous buffer [4] [nm] | concentration below which no antimicrobial activity was observed (E. coli and S. aureus; E. coli and S. aureus) [µg/mL] | calcein leakage from zwitterionic ePC:ePE LUVs (in words) [3] | solubility in the cosolvent mixture (in words) [5] | behaviour in aqueous solution or 40% TFE (in words) [6] | hemolytic activity (in words) [7] | Hemolysis EC50 ([1]; effective concentration for 50% hemolysis, red blood cells from healthy volunteers) [µg/mL] | concentrations of bacteriostatic and bactericidal effects (E. coli and S. aureus; range over MIC and MBC of both strains) [µg/mL] |
| --- | --- | --- | --- | --- | --- | --- | --- | --- | --- | --- | --- | --- | --- | --- | --- | --- | --- | --- |
| KWAKKWKWFAKAAWKWYKK-NH2 [gp41w-KA] | 42 | inactive | 16.4 | >100 | >100 | >100 | >100 | ~ 70% |  |  |  |  |  |  |  |  |  |  |
| KWASLWNWFNITNWLWYIK-NH2 [gp41w] |  | inactive | 10.3 | >100 | >100 | >100 | >100 |  | ≥ 500 | minimal hemolysis | 342 | ≥ 100 | caused leakage, but not to the same extent | did not readily dissolve | peptide aggregation or poor solubility |  |  |  |
| LKWLLKWLL-NH2 |  |  |  |  |  |  |  |  |  |  |  |  |  |  |  | significant hemolytic activity |  |  |
| KWARLWRWFRITRWLWYIK-NH2 [gp41w-4R] | 7 | inactive | 27.8 | >100 | >100 | >100 | >100 |  |  |  |  |  | significant leakage |  |  |  | 7 to 14 |  |
| KFAKKFKWFAKAAFKFFKK-NH2 [gp41w-FKA] | 195 | significant antimicrobial activity | 17.9 | 40 to 50 | 10 to 30 | 20 to 30 | <10 | ~ 70% |  |  |  |  |  |  |  |  |  | 10 to 50 |

From publication PMC3458735, “Design of a novel tryptophan-rich membrane-active antimicrobial peptide from the membrane-proximal region of the HIV glycoprotein, gp41” (Beilstein Journal of Organic Chemistry, 2012)
